Here are results for seven molecules from article PMC4778918, “Signal Transduction at the Domain Interface of Prokaryotic Pentameric Ligand-Gated Ion Channels” (PLoS Biology, 2016).

“And” between values parts separate entries of the source, which are not always exact repeats. Identical values can stand only once. Like-named read-outs stand apart in the source and are kept apart here.

In one series the target is ELIC R91A/Y258A (Dickeya chrysanthemi, UniProt P0C7B7, R91A/Y257A). As to the kind of experiment: biochemical. The series is classed as binding, Erwinia chrisanthemi. Particulars: read-out: Keff.
The next series deals with ELIC R91A (Dickeya chrysanthemi, UniProt P0C7B7, INS163G/R91A). As to the kind of experiment: biochemical. The series is classed as binding, Erwinia chrisanthemi. As to conditions: read-out: Keff.
In series [1] the target is T1, ELIC T28D (Dickeya chrysanthemi, UniProt P0C7B7, INS163G/T28D). As to the kind of experiment: biochemical. The series is classed as binding, Erwinia chrisanthemi. Particulars: ITC.
The target of a further series is ELIC R91A/F116A (Dickeya chrysanthemi, UniProt P0C7B7, F116A/R91A). As to the kind of experiment: biochemical. The series is classed as binding, Erwinia chrisanthemi. As to conditions: read-out: Keff.
Series [2] deals with ELIC double mutant R91A/Y258A. As to the kind of experiment: SEC. A general note: SEC sorts molecules by how far they enter the pores of the column.
The target of series [3] is ELIC ligand binding site mutant R91A. Briefly: SEC.
A further series concerns the target ELIC L29A (Dickeya chrysanthemi, UniProt P0C7B7, INS163G/L29A). The series is classed as cell-based, Erwinia chrisanthemi. Particulars: 0.5 mM Ca2+, mean of 3 oocytes.
A further series concerns the target ELIC ΔL29 (Dickeya chrysanthemi, UniProt P0C7B7, DEL29-29/INS163G). The series is classed as cell-based, Erwinia chrisanthemi. As to conditions: ELIC woL29 (deletion of Leu29), 0.5 mM Ca2+, mean of 4 oocytes.
For another series, the target named is ELIC T28A (Dickeya chrysanthemi, UniProt P0C7B7, INS163G/T28A). The series is classed as cell-based, Erwinia chrisanthemi. Particulars: for I/Imax mean: ELIC T28A, 0.5 mM Ca2+, mean of 4 oocytes.
Another series has as its target ELIC P254A (Dickeya chrysanthemi, UniProt P0C7B7, P253A). The series is classed as cell-based, Erwinia chrisanthemi.
In series [4] the target is T1, ELIC T28D. The series is classed as cell-based, Erwinia chrisanthemi. As to conditions: 0.5 mM Ca2+, mean of 5 oocytes.
Source text: (§1) X. laevis oocytes were obtained either from Ecocyte or from an in-house facility. Animal procedures and preparation of oocytes followed standard procedures and were in accordance with the Swiss Cantonal and Federal legislation relating to animal experimentation. Plasmid DNA containing the genes coding for the respective constructs for expression in X. laevis oocytes were linearized by MluI, and capped mRNA was transcribed with the mMessage mMachine kit (Ambion) and purified with the RNeasy kit (Qiagen). 10–200 ng of mRNA was injected into defolliculated X. laevis oocytes, which were subsequently incubated in Barth’s solution (88 mM NaCl, 1 mM KCl, 1 mM CaCl2, 0.33 mM Ca(NO3)2, 0.82 mM MgSO4, 10 mM Na-Hepes (pH 7.4) and 50 μg / ml Gentamycin) and stored at 16°C. One to three days after injection, two-electrode voltage clamp measurements were performed at 20°C (OC-725B, Warner Instrument Corp.). For ELIC, maximal currents were recorded in a bath solution containing 10 mM Hepes (pH 7), 130 mM NaCl, 2 mM KCl, 0.5 mM CaCl2 and either 5 mM or 25 mM Cysteamine. […] Dose-response experiments were carried out at agonist concentrations indicated in the respective figures. Voltage was clamped at −40 mV, and data was filtered at 20 Hz unless stated otherwise.
The target in series [5] is T2, ELIC WT (Dickeya chrysanthemi, UniProt P0C7B7, INS163G). Briefly: Two-electrode voltage clamp dose-response, ELIC WT in X. laevis oocytes. The series is classed as cell-based, Erwinia chrisanthemi. As to conditions: 0.5 mM Ca2+, mean of 4 oocytes. The source says: X. laevis oocytes were obtained either from Ecocyte or from an in-house facility. Animal procedures and preparation of oocytes followed standard procedures and were in accordance with the Swiss Cantonal and Federal legislation relating to animal experimentation. Plasmid DNA containing the genes coding for the respective constructs for expression in X. laevis oocytes were linearized by MluI, and capped mRNA was transcribed with the mMessage mMachine kit (Ambion) and purified with the RNeasy kit (Qiagen). 10–200 ng of mRNA was injected into defolliculated X. laevis oocytes, which were subsequently incubated in Barth’s solution (88 mM NaCl, 1 mM KCl, 1 mM CaCl2, 0.33 mM Ca(NO3)2, 0.82 mM MgSO4, 10 mM Na-Hepes (pH 7.4) and 50 μg / ml Gentamycin) and stored at 16°C. One to three days after injection, two-electrode voltage clamp measurements were performed at 20°C (OC-725B, Warner Instrument Corp.). For ELIC, maximal currents were recorded in a bath solution containing 10 mM Hepes (pH 7), 130 mM NaCl, 2 mM KCl, 0.5 mM CaCl2 and either 5 mM or 25 mM Cysteamine. For GLIC, the maximal currents were recorded in a bath solution containing 10 mM Citrate (pH 4), 130 mM NaCl, 2 mM KCl, 1.8 mM CaCl2 and 1 mM MgCl2. Dose-response experiments were carried out at agonist concentrations indicated in the respective figures. Voltage was clamped at −40 mV, and data was filtered at 20 Hz unless stated otherwise. Surface expression in constructs containing an HA-tag was assayed after electrophysiological characterization as described. For that purpose, the oocytes were placed in a 96-well plate (TPP) and incubated in ND96 solution (93.5 mM NaCl, 2 mM KCl, 1.8 mM CaCl2, 2 mM MgCl2 and 10 mM Hepes, pH 7.4) containing 1% BSA for at least 30 min. All steps were carried out at 4°C with the same buffer unless mentioned otherwise. Oocytes were subsequently transferred into buffer containing 1 μg/ml rat monoclonal anti-HA antibody (3F10, Roche) for 1 h, washed 3 times and incubated with buffer containing 0.16 μg/ml horseradish peroxidase (HRP) coupled to a secondary antibody (HRP-conjugated goat anti-rat F(Ab)2 fragments, Jackson) for 30–60 min. The oocytes were washed 5 times with ND96 solution and subsequently transferred to a white 96-well plate (flat bottom, Nunclon Delta Surface). The solution was aspirated, 30 μl of Super Signal ELISA femto solutions 1 and 2 (Pierce) was added, and luminescence was quantitated with a Tecan infinite M1000 plate reader.
On the technique in general: In two-electrode clamp one electrode senses voltage and the other passes current.

Another series deals with ELIC. Also on record: method as in PMID 21713033. As to conditions: two-electrode voltage clamp recordings, ELIC WT, in the absence of Ca2+; cited from earlier work.
For series [6], the target named is T2, ELIC WT. As to the kind of experiment: biochemical. The series is classed as binding, Erwinia chrisanthemi.
In the next series the target is ELIC resting state. Particulars: kinetic analysis of single channel recordings of ELIC; read-out: dissociation constant to the resting state; cited from earlier work.
Series [7] deals with the molecule itself. Briefly: SEC; gel filtration on Superdex 200 at 4°C in buffer with 0.145% UDM after removal of His10-MBP; pentamer peak pooled for ITC.
The series “SEC” concerns the molecule itself. Briefly: SEC.

Source text for ELIC L29A: as §1
Source text for ELIC P254A: as §1
Source text for ELIC T28A: as §1
Source text for ELIC ΔL29: as §1

For `CC(=O)OCC[N+](C)(C)C` [acetylcholine], the Kd on ELIC R91A/Y258A turned out to be 2000 µM; on ELIC R91A it was 1400 µM; on ELIC R91A/F116A, 1800 µM. Further, the “binding of the antagonist compared to WT” value at ELIC T28D [1] (ELIC T28D versus WT) was “unchanged”.

The stoichiometry N is a count of units in the complex or per binding partner. In turn, “ELIC double mutant R91A/Y258A (receptor)” returned a stoichiometry N in series [2] of 5.

Turning to “ELIC ligand binding site mutant R91A (receptor)”, the stoichiometry N in series [3] is 5.

For the molecule `NCCS` [cysteamine], the I/Imax mean came to 0.16 at ELIC L29A (conc cys. 0.1 (mM)); 0.69 on ELIC L29A (conc cys. 0.25 (mM)); 0.79 on ELIC L29A (conc cys. 0.35 (mM)); 0.88 at ELIC L29A (conc cys. 0.5 (mM)); 1.00 at ELIC L29A (conc cys. 0.75 (mM)); 0.10 on ELIC ΔL29 (conc cys. 0.25 (mM)). Moreover, the I/Imax mean on ELIC ΔL29 (conc cys. 0.5 (mM)) stood at 0.43; on ELIC ΔL29 (conc cys. 0.75 (mM)), 0.64; at ELIC ΔL29 (conc cys. 1 (mM)), 0.86; on ELIC ΔL29 (conc cys. 2.5 (mM)), 1.00; on ELIC T28A (conc cys. 1.00 (mM)), 0.0138; on ELIC T28A (conc cys. 2.50 (mM)) it was 0.34. Moreover, the I/Imax mean was found to be 0.56 at ELIC T28A (conc cys. 5.00 (mM)); 0.83 at ELIC T28A (conc cys. 10.00 (mM)); 1.00 on ELIC T28A (conc cys. 25.00 (mM)); 0.0189 at ELIC P254A (conc cys. 0.25 (unit not given)); 0.14 at ELIC P254A (conc cys. 0.5 (unit not given)); 0.41 on ELIC P254A (conc cys. 0.75 (unit not given)). Moreover, the “I/Imax mean” value at ELIC P254A (conc cys. 1 (unit not given)) is 0.51; at ELIC P254A (conc cys. 2.5 (unit not given)) it was 0.90; on ELIC P254A (conc cys. 5 (unit not given)) it was 1.00; on ELIC T28D [4] (conc cys. 0.01 (mM)), 0.13; on ELIC T28D [4] (conc cys. 0.025 (mM)), 0.63; at ELIC T28D [4] (conc cys. 0.05 (mM)) it was 0.96. In addition, the I/Imax mean on ELIC T28D [4] (conc cys. 0.1 (mM)) worked out at 1.00; at ELIC WT [5] (conc cys. 0.1 (mM)), 0.00; at ELIC WT [5] (conc cys. 0.25 (mM)), 0.00655; at ELIC WT [5] (conc cys. 0.5 (mM)), 0.09; at ELIC WT [5] (conc cys. 0.75 (mM)) it was 0.32; at ELIC WT [5] (conc cys. 1 (mM)), 0.54. This molecule yielded an I/Imax mean at ELIC WT [5] (conc cys. 5 (mM)) of 1.00. In addition, at ELIC T28A (ELIC T28A versus WT, two-electrode voltage clamp), the “EC50 higher than WT” value was 3.5 fold. Besides, the “I/Imax, single oocyte” value on ELIC P254A (conc cys. 0.5 (unit not given), listed as cys.) was 0.13 and 0.12 and 0.19; on ELIC P254A (conc cys. 0.75 (unit not given), listed as cys.), 0.33 and 0.45 and 0.39 and 0.42; on ELIC P254A (conc cys. 1 (unit not given), listed as cys.) it was 0.42 and 0.56 and 0.47; at ELIC P254A (conc cys. 2.5 (unit not given), listed as cys.), 0.82 and 0.97 and 0.85 and 0.95 and 0.92; at ELIC P254A (conc cys. 5 (unit not given)) it was 1.00.

By EC50 is commonly meant the midpoint of the concentration-response curve. Take `CCCN` [propylamine]: the Kd is 900 µM at ELIC R91A/Y258A (ITC, ELIC double mutant R91A/Y258A, 4°C); 1100 µM on ELIC R91A (ITC, ELIC ligand binding site mutant R91A, 4°C); 90 µM at ELIC T28D [1] (ELIC mutant T28D, agonist, read-out: Keff); 8000 µM on ELIC WT [6] (ITC, ELIC WT in detergent (UDM), 4°C, single-site isotherm, read-out: effective dissociation constant (Keff)); 7100 µM on ELIC resting state; 800 µM on ELIC R91A/F116A (ITC, ELIC double mutant R91A/F116A, 4°C). In addition, the “decrease in Keff concentration compared to WT” value at ELIC T28D [1] (ELIC T28D versus WT) is listed as 90 fold. Further, in the series on ELIC, the EC50 was 450 µM. Besides, on ELIC WT [6], the “Keff (ITC) higher than EC50 (two-electrode voltage clamp)” value is listed as “about 20 fold”.

B1: ELIC wild type (receptor)
chain: APADNAADARPVDVSVSIFINKIYGVNTLEQTYKVDGYIVAQWTGKPRKTPGDKPLIVENTQIERWINNGLWVPALEFINVVGSPDTGNKRLMLFPDGRVIYNARFLGSFSNDMDFRLFPFDRQQFVLELEPFSYNNQQLRFSDIQVYTENIDNEEIDEWWIRKASTHISDIRYDHLSSVQPNQNEFSRITVRIDAVRNPSYYLWSFILPLGLIIAASWSVFWLESFSERLQTSFTLMLTVVAYAFYTSNILPRLPYTTVIDQMIIAGYGSIFAAILLIIFAHHRQAMGVEDDLLIQRCRLAFPLGFLAIGCVLVIRGITL
notes: ELIC, prokaryotic pentameric ligand-gated ion channel; GenBank WP_013319743 printed; Homopentamer; purified for ITC with small-molecule ligands; also called ELIC WT; source: E. coli BL21-DE3, purified (extracted in UDM, Ni-NTA, HRV 3C cleavage, Superdex 200 gel filtration); not shown: His10, N-terminal, cleaved
As for B1, the “stoichiometry N” value in [7] was found to be 5.

B2: ELIC double mutant R91A/F116A (receptor)
chain: APADNAADARPVDVSVSIFINKIYGVNTLEQTYKVDGYIVAQWTGKPRKTPGDKPLIVENTQIERWINNGLWVPALEFINVVGSPDTGNKALMLFPDGRVIYNARFLGSFSNDMDARLFPFDRQQFVLELEPFSYNNQQLRFSDIQVYTENIDNEEIDEWWIRKASTHISDIRYDHLSSVQPNQNEFSRITVRIDAVRNPSYYLWSFILPLGLIIAASWSVFWLESFSERLQTSFTLMLTVVAYAFYTSNILPRLPYTTVIDQMIIAGYGSIFAAILLIIFAHHRQAMGVEDDLLIQRCRLAFPLGFLAIGCVLVIRGITL
notes: source: E. coli BL21-DE3, purified (extracted in UDM, Ni-NTA, HRV 3C cleavage, Superdex 200 gel filtration)
As to B2, the “stoichiometry N” value in the series “SEC” was 5.
